According to patent US20150105252A1, “SUBSTITUTED PYRAZOLES AS HERBICIDES” (E I DU PONT DE NEMOURS AND COMPANY, priority 2013, published 2015):

How the values were obtained:
Italian ryegrass [1] = assay: Test A postemergence; type: in vivo, Lolium multiflorum
Procedure, shortened: (§1)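 Greenhouse test in loam soil/sand blend; compounds formulated in non-phytotoxic solvent with surfactant, applied as preemergence directed soil spray or postemergence to plants 2–10 cm tall at one- to two-leaf stage. Injury rated visually versus untreated controls after approximately 10 days on a 0 (no effect) to 100 (complete control) scale.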

blackgrass = assay: Test A postemergence; type: in vivo, Alopecurus myosuroides
From the text: (§2) Seeds of plant species selected from barnyardgrass (Echinochloa crus-galli), kochia (Kochia scoparia), common ragweed (Ambrosia elation), Italian ryegrass (Lolium multiflorum), crabgrass, large (large crabgrass, Digitaria sanguinalis), foxtail, giant (giant foxtail, Setaria faberii), morningglory (Ipomoea spp.), pigweed (redroot pigweed, Amaranthus retroflexus), velvetleaf (Abutilon theophrasti), wheat (Triticum aestivum), and corn (Zea mays) were planted into a blend of loam soil and sand and treated preemergence with a directed soil spray using test chemicals formulated in a non-phytotoxic solvent mixture which included a surfactant.
(§3) At the same time, plants selected from these crop and weed species and also blackgrass (Alopecurus myosuroides), and galium (catchweed bedstraw, Galium aparine) were planted in pots containing the same blend of loam soil and sand and treated with postemergence applications of test chemicals formulated in the same manner. Plants ranged in height from 2 to 10 cm and were in the one- to two-leaf stage for the postemergence treatment. Treated plants and untreated controls were maintained in a greenhouse for approximately 10 days, after which time all treated plants were compared to untreated controls and visually evaluated for injury. Plant response ratings, summarized in Table A, are based on a 0 to 100 scale where 0 is no effect and 100 is complete control. A dash (-) response means no test result.

kochia [2] = assay: Test A preemergence; type: in vivo, Kochia scoparia
Procedure, shortened: as §1

wheat = assay: Test A postemergence; type: in vivo, Triticum aestivum
Procedure, shortened: as §1

common ragweed [3] = assay: Test A preemergence; type: in vivo, Ambrosia elation
Procedure, shortened: as §1

pigweed [4] = assay: Test A preemergence; type: in vivo, Amaranthus retroflexus; conditions: preemergence
Procedure, shortened: as §1

common ragweed [5] = assay: Test A postemergence; type: in vivo, Ambrosia elation
From the text: as §2, §3

galium = assay: Test A postemergence; type: in vivo, Galium aparine
From the text: as §2, §3

barnyardgrass [6] = assay: Test A postemergence; type: in vivo, Echinochloa crus-galli
Procedure, shortened: as §1

barnyardgrass [7] = assay: Test B flood; type: in vivo, Echinochloa crus-galli; conditions: 250 g ai/ha, visual rating on 0 to 100 scale (0 no effect, 100 complete control), 13 to 15 days
Procedure, shortened: (§4)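 Each compound is applied to the floodwater of pots holding 2-leaf seedlings, water standing 3 cm over the soil throughout. Plants stay in a greenhouse 13 to 15 days before visual scoring against controls from 0 (no effect) to 100 (complete control).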

ducksalad = assay: Test B flood; type: in vivo, Heteranthera limosa; conditions: 250 g ai/ha, visual rating on 0 to 100 scale (0 no effect, 100 complete control), 13 to 15 days
Procedure, shortened: as §4

kochia [8] = assay: Test A postemergence; type: in vivo, Kochia scoparia
From the text: as §2, §3

barnyardgrass [9] = assay: Test A preemergence; type: in vivo, Echinochloa crus-galli; conditions: preemergence
Procedure, shortened: as §1

foxtail, giant [10] = assay: Test A postemergence; type: in vivo, Setaria faberii
Procedure, shortened: as §1

foxtail, giant [11] = assay: Test A preemergence; type: in vivo, Setaria faberii; conditions: preemergence
Procedure, shortened: as §1

Italian ryegrass [12] = assay: Test A preemergence; type: in vivo, Lolium multiflorum
From the text: as §2, §3

rice = assay: Test B flood; type: in vivo, Oryza sativa; conditions: 250 g ai/ha, visual rating on 0 to 100 scale (0 no effect, 100 complete control), 13 to 15 days
Procedure, shortened: as §4

pigweed [13] = assay: Test A postemergence; type: in vivo, Amaranthus retroflexus
Procedure, shortened: as §1

sedge, umbrella = assay: Test B flood; type: in vivo, Cyperus difformis; conditions: 250 g ai/ha, visual rating on 0 to 100 scale (0 no effect, 100 complete control), 13 to 15 days
Procedure, shortened: as §4

corn = assay: Test A postemergence; type: in vivo, Zea mays
Procedure, shortened: as §1

[14] = Postemergence, 500 g ai/ha, 0 to 100 scale (0 no effect, 100 complete control)
[15] = postemergence, 125 g ai/ha, about 10 days, visual rating on 0 to 100 scale (0 no effect, 100 complete control)
[16] = 125 g ai/ha, visual injury, 0 to 100 scale, approx. 10 days
[17] = 500 g ai/ha, visual injury after approx. 10 days, 0 to 100 scale (0 no effect, 100 complete control)

Compound	Italian Ryegrass plant response rating (Italian ryegrass [1]; [14])	Italian Ryegrass plant response rating (Italian ryegrass [1]; [15])	Blackgrass plant response rating (blackgrass; [14])	Blackgrass plant response rating (blackgrass; [15])	Kochia plant response rating (kochia [2]; [16])	Kochia plant response rating (kochia [2]; [17])	Wheat plant response rating (wheat; [14])	Wheat plant response rating (wheat; [15])	Common Ragweed plant response rating (common ragweed [3]; [16])	Common Ragweed plant response rating (common ragweed [3]; [17])	Pigweed plant response rating (pigweed [4]; [16])	Pigweed plant response rating (pigweed [4]; [17])	Common Ragweed plant response rating (common ragweed [5]; [14])	Common Ragweed plant response rating (common ragweed [5]; [15])	Galium plant response rating (galium; [14])	Galium plant response rating (galium; [15])	Barnyardgrass plant response rating (barnyardgrass [6]; [14])	Barnyardgrass plant response rating (barnyardgrass [6]; [15])	Plant response rating, Barnyardgrass (barnyardgrass [7])	Plant response rating, Ducksalad (ducksalad)	further results
CCc1cc(C(=O)NCC(F)(F)F)nn1Cc1cc(C(F)(F)F)no1 [Compound 123]	30	10	50	10	10	100	10	0	10	50	70	100	40	10	80	10	60	0	20	60	Kochia plant response rating (kochia [8]; [14]): 90; Kochia plant response rating (kochia [8]; [15]): 50; Barnyardgrass plant response rating (barnyardgrass [9]; [16]): 0; Barnyardgrass plant response rating (barnyardgrass [9]; [17]): 100; Foxtail, Giant plant response rating (foxtail, giant [10]; [14]): 90; Foxtail, Giant plant response rating (foxtail, giant [10]; [15]): 0; Foxtail, Giant plant response rating (foxtail, giant [11]; [16]): 20; Foxtail, Giant plant response rating (foxtail, giant [11]; [17]): 100; Italian Ryegrass plant response rating (Italian ryegrass [12]; [16]): 0; Italian Ryegrass plant response rating (Italian ryegrass [12]; [17]): 30; Plant response rating, Rice (rice): 10; Pigweed plant response rating (pigweed [13]; [14]): 100; Pigweed plant response rating (pigweed [13]; [15]): 70; Plant response rating, Sedge, Umbrella (sedge, umbrella): 60; Corn plant response rating (corn; [14]): 60; Corn plant response rating (corn; [15]): 20
CCc1cc(C(=O)NC2CC2)nn1Cc1cc(C(F)(F)F)no1 [Compound 124]	30	10	60	10	20	90	0	0	10	40	20	100	30	20	80	10	70	0	10	30	Kochia plant response rating (kochia [8]; [14]): 90; Kochia plant response rating (kochia [8]; [15]): 50; Barnyardgrass plant response rating (barnyardgrass [9]; [16]): 0; Barnyardgrass plant response rating (barnyardgrass [9]; [17]): 100; Foxtail, Giant plant response rating (foxtail, giant [10]; [14]): 90; Foxtail, Giant plant response rating (foxtail, giant [10]; [15]): 0; Foxtail, Giant plant response rating (foxtail, giant [11]; [16]): 20; Foxtail, Giant plant response rating (foxtail, giant [11]; [17]): 100; Italian Ryegrass plant response rating (Italian ryegrass [12]; [16]): 0; Italian Ryegrass plant response rating (Italian ryegrass [12]; [17]): 20; Plant response rating, Rice (rice): 20; Pigweed plant response rating (pigweed [13]; [14]): 100; Pigweed plant response rating (pigweed [13]; [15]): 30; Plant response rating, Sedge, Umbrella (sedge, umbrella): 20; Corn plant response rating (corn; [14]): 40; Corn plant response rating (corn; [15]): 10
